Results as given in article PMC12640828 (Frontiers in Pharmacology, 2025).

How the values were obtained:
Rat cardiac H9C2 cells = experiment: MTT-cell viability assay; type: cell-based; details: 1 μM, 3 μM and 10 µM, 4 days, MTT colorimetric
Description: The rat cardiac H9C2 cells were maintained in Dulbecco’s Modified Eagle Medium (DMEM) cell culture medium (supplemented with 10% fetal bovine serum, 4.5 gm/liter D-glucose, and 1x penicillin-streptomycin antibiotic solution) and grown at 37 °C in a humidified incubator with 5% CO2. Cells in a 96-well plate were treated with 1 μM, 3 μM, and 10 µM concentrations of NMEG-CGRP and CMEG-CGRP and further grown for 4 days. The cell viability assay was performed using colorimetric MTT-cell proliferation kit I (Roche-Millipore Sigma, St Louis, MO) following the vendor’s protocol.

[1] = molecular target: T1, insulin-degrading enzyme (IDE) (Homo sapiens, UniProt P14735); experiment: In vitro peptide digestion with IDE followed by LC-MS; type: in vitro ADME; details: 100 µM peptide, 0.1 µg IDE, 50 mM Tris-Cl pH 7.5 + 1M NaCl, 25 µL, 37 °C, sampled at 5, 30, 60 min
T1 construct: purchased R&D Systems, Minneapolis, MN
T1 sequence (P14735 1-1019): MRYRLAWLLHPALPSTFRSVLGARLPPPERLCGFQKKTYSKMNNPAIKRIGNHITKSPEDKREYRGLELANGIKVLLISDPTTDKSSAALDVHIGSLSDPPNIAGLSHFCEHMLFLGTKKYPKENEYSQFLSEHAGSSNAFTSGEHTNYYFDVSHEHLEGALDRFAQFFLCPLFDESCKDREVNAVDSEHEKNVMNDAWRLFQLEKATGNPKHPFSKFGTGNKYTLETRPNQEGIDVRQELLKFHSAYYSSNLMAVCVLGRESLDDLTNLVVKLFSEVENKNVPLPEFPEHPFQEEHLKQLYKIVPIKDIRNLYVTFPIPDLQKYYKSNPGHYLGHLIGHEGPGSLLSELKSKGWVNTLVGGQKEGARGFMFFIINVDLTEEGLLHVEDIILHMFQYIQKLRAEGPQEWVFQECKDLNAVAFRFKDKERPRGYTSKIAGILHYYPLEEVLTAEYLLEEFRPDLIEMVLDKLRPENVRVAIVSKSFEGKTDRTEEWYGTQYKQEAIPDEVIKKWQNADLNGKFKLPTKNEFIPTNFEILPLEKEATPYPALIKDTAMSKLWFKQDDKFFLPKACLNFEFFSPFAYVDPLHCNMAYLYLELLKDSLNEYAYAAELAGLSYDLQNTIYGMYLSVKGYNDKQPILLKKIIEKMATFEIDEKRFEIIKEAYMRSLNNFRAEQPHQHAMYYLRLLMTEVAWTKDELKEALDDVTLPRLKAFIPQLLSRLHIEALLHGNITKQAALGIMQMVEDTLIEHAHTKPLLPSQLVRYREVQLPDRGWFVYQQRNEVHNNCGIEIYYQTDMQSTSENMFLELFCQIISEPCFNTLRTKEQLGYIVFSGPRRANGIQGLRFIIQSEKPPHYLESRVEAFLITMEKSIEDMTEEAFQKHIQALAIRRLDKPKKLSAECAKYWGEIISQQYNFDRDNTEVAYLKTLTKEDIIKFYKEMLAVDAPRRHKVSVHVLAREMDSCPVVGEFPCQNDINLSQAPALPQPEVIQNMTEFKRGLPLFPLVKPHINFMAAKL
Description: An equal volume (25 µL) of 10% formic acid (Sigma) was added. After heating the reaction at 95 °C for 5 min, desalting of the peptides was carried out using Pierce C18 tips (87782; ThermoFisher Scientific). For peptide-desalting, 30 µL of 2.5% trifluoroacetic acid (TFA) was added in a total 50 µL of the peptide-digestion reaction. Pierce C18 tips were wetted in 50% acetonitrile:water soln, equilibrated with 0.1% TFA, and peptides were passed through the C18 tips. After washing the C18 tips with 0.1% TFA in 5% acetonitrile:water soln, peptides were eluted in 10 µL of 0.1% formic acid in 75% acetonitrile: water soln and stored at −80 °C. Desalted peptide samples were submitted for Liquid Chromatography Mass Spectrometry (LC-MS) analysis to the University of South Carolina-Mass Spectrometry Center.

Solubility in water = type: physicochemical
[2] = test system: TAC pressure-overload induced HF in mice; experiment: TAC pressure-overload heart failure in mice: echocardiography and heart weight; type: in vivo, male C57BL/6 mice; details: 3.6 mg/kg/mouse s.c. on alternate days for 28 days
Description: Eight-week-old male C57BL/6 mice, purchased from Charles River Laboratories (Wilmington, MA), were housed in the institutional animal facility on a 12 h light/12 h dark cycle with free access to food and water throughout. Animal protocols were approved by the University of South Carolina-Institutional Animal Care and Use Committee (IACUC) following the NIH guidelines.
A transverse aortic constriction (TAC) procedure was followed to induce pressure-overload HF in mice ([Li et al., 2013]; [Kumar et al., 2019b]; [Kumar et al., 2020]). Briefly, mice were anesthetized under 1%–2% isoflurane and the chests of these mice were opened through the suprasternal notch. A 7–0 polypropylene suture was passed under the aortic arch between the left common carotid and innominate arteries and tied around the aorta and a 27-G needle. After tying a knot, the needle was removed, and the chest was closed using a 6–0 suture. Mice were kept on the 37 °C heat pad until they recovered and buprenorphine (0.1 mg/kg/mouse) was given subcutaneously (s.c.) as post-operative care. An identical procedure except tying a knot around the aortic arch was performed in the Sham groups of mice. Two days post-TAC, mice were divided into four groups (6–7 mice/gr): i- Sham, ii- Sham+NMEG-CGRP, iii- TAC, and iv- TAC+NMEG-CGRP. A stock solution 1 mg/mL of NMEG-CGRP was prepared in sterile 0.9% NaCl soln and NMEG-CGRP at 3.6 mg/kg/mouse dose was injected s.c. in the Sham+NMEG-CGRP and TAC+NMEG-CGRP groups of mice on alternate days for a total of 28 days. […]
The short axis 2D echocardiography was performed before TAC procedure (day 0) and then weekly after start of NMEG-CGRP administration in all groups of mice under 1%–2% isoflurane anesthesia using Vevo 3100 High-Resolution Imaging System (VisualSonics Inc., Toronto, Canada) and cardiac parameters were calculated using VisualSonics Measurement Software ([Li et al., 2013]; [Kumar et al., 2020]).

| Time to complete digestion of full-length peptide by IDE [1] [min] | Solubility in water (Solubility in water) | EF, Sham vs. Sham+NMEG-CGRP ([2]; sham mice, day 30) | Fractional shortening (FS), Sham vs. Sham+NMEG-CGRP ([2]; sham mice, day 30) | SMILES | Viability of cardiac cells (MTT optical density vs control) (Rat cardiac H9C2 cells) | Abnormalities / adverse effect in mice during NMEG-CGRP delivery ([2]; Sham- and TAC-mice) |
| --- | --- | --- | --- | --- | --- | --- |
| > 60 | soluble in water | non-significant | non-significant | COCCNCC(=O)N(CCOC)CC(=O)N[C@@H](C)C(=O)N[C@H]1CSSC[C@@H](C(=O)N[C@H](C(=O)N[C@H](C(=O)N[C@@H](Cc2c[nH]cn2)C(=O)N[C@@H](CCCNC(=N)N)C(=O)N[C@@H](CC(C)C)C(=O)N[C@@H](C)C(=O)NCC(=O)N[C@@H](CC(C)C)C(=O)N[C@@H](CC(C)C)C(=O)N[C@@H](CO)C(=O)N[C@@H](CCCNC(=N)N)C(=O)N[C@@H](CO)C(=O)NCC(=O)NCC(=O)N[C@H](C(=O)N[C@H](C(=O)N[C@@H](CCCCN)C(=O)N[C@@H](CC(N)=O)C(=O)N[C@@H](CC(N)=O)C(=O)N[C@@H](Cc2ccccc2)C(=O)N[C@H](C(=O)N2CCC[C@H]2C(=O)N[C@H](C(=O)N[C@@H](CC(N)=O)C(=O)N[C@H](C(=O)NCC(=O)N[C@@H](CO)C(=O)N[C@@H](CCCCN)C(=O)N[C@@H](C)C(=O)N[C@@H](Cc2ccccc2)C(N)=O)C(C)C)[C@@H](C)O)C(C)C)C(C)C)C(C)C)[C@@H](C)O)C(C)C)NC(=O)[C@H]([C@@H](C)O)NC(=O)[C@H](C)NC(=O)[C@H]([C@@H](C)O)NC(=O)[C@H](CC(=O)O)NC1=O [NMEG-CGRP] | did not inhibit the growth of H9C2 cells | did not observe any abnormalities |
| 5 to 30 | – | – | – | CC(C)C[C@H](NC(=O)CNC(=O)[C@H](C)NC(=O)[C@H](CC(C)C)NC(=O)[C@H](CCCNC(=N)N)NC(=O)[C@H](Cc1cnc[nH]1)NC(=O)[C@@H](NC(=O)[C@@H](NC(=O)[C@@H]1CSSC[C@H](NC(=O)[C@H](C)N)C(=O)N[C@@H](CC(=O)O)C(=O)N[C@@H]([C@@H](C)O)C(=O)N[C@@H](C)C(=O)N[C@@H]([C@@H](C)O)C(=O)N1)C(C)C)[C@@H](C)O)C(=O)N[C@@H](CC(C)C)C(=O)N[C@@H](CO)C(=O)N[C@@H](CCCNC(=N)N)C(=O)N[C@@H](CO)C(=O)NCC(=O)NCC(=O)N[C@H](C(=O)N[C@H](C(=O)N[C@@H](CCCCN)C(=O)N[C@@H](CC(N)=O)C(=O)N[C@@H](CC(N)=O)C(=O)N[C@@H](Cc1ccccc1)C(=O)N[C@H](C(=O)N1CCC[C@H]1C(=O)N[C@H](C(=O)N[C@@H](CC(N)=O)C(=O)N[C@H](C(=O)NCC(=O)N[C@@H](CO)C(=O)N[C@@H](CCCCN)C(=O)N[C@@H](C)C(=O)N[C@@H](Cc1ccccc1)C(N)=O)C(C)C)[C@@H](C)O)C(C)C)C(C)C)C(C)C [human α-CGRP, reference compound] | – | – |
